Assay results: patent US20240368173A1, “TRICYCLIC GPR65 MODULATORS” (PATHIOS THERAPEUTICS LIMITED, priority 2021, published 2024)
Read-outs that look alike come from different tables or passages of the source.

Target: human recombinant GPR65 (Homo sapiens, UniProt Q8IYL9)
Test: Human GPR65 cAMP HTRF antagonist assay
Type: cell-based
Excerpt: In one preferred embodiment, the compound prevents the increase in cytoplasmic cAMP levels expected following GPR65 activation at acidic pH. This prevention of cAMP accumulation in turn prevents downstream signalling through ICER, as described above. The “Human GPR65 cyclic adenosine monophosphate (cAMP) Homogeneous Time Resolved Fluorescence (HTRF) antagonist assay”, or simply “cAMP assay”, as described in the accompanying examples, can be used to measure the potency of GPR65 modulators, which is expressed as the concentration of compound required to reduce the increase in cAMP concentration upon GPR65 activation by 50% (i.e. an IC50).
Human GPR65 Cyclic Adenosine Monophosphate (cAMP) Homogeneous Time Resolved Fluorescence (HTRF) Antagonist Assay Procedure
IC50 data was obtained by the following procedure:
1321N1 human astrocytoma cells stably expressing human recombinant GPR65 (1321N1-hrGPR65 cells, EuroscreenFast) were cultured according to the vendor's instructions.
Compounds were tested for their ability to antagonise GPR65, through measuring the concentration of cytoplasmic cAMP following treatment of the cells at a pH of 7.2 to activate GPR65 signalling and addition of the compound to be tested. The extent to which the expected rise in cAMP concentration upon GPR65 activation was suppressed by the added compound is indicative of its potency. The assay was carried out according to EuroscreenFast assay Methodology as follows.
On the day of the assay, test compounds were added to 384-well, low volume, white microtiter plates by acoustic dispensing. KRH buffer (5 mM KCl, 1.25 mM MgSO4, 124 mM NaCl, 25 mM HEPES, 13.3 mM Glucose, 1.25 mM KH2PO4 and 1.45 mM CaCl2) was adjusted to pH 6.5, pH 7.6 and pH 8.4 by adding NaOH. 1321N1-hGPR65 cells were rapidly thawed and diluted in KRH, pH 7.6 prior to centrifugation at 300×g for 5 min and resuspension in assay buffer (KRH, pH 7.6, supplemented with 1 mM 3-isobutyl-1-methylxanthine (IBMX) and 200 μM ethylenediaminetetraacetic acid (EDTA)). Cells were added to assay plates at a density of 2,000 cells per well in a volume of 5 μl. Assay plates were briefly centrifuged at 100×g and then incubated at room temperature for 30 min. Cells were stimulated by the addition of 5 μL KRH, pH 6.5, to achieve an assay pH of 7.2, while control wells received 5 μl KRH, pH 8.4 to achieve an assay pH of 7.9. Assay plates were briefly centrifuged at 100×g and then incubated at room temperature for 30 min.
Accumulation of cAMP was detected by cAMP HTRF kit (Cisbio). d2-labeled cAMP and cryptate-labeled anti-cAMP antibody in Lysis and Detection Buffer (Cisbio) were added to assay plates, and the plates were incubated at room temperature for 1 h. HTRF measurements were performed using a Pherastar FSX instrument. Acceptor and donor emission signals were measured at 665 nm and 620 nm, respectively, and HTRF ratios were calculated as signal665 nm/signal620 nm×10^4. Data were normalised to high and low control values and fitted with 4-parameter logistic regression to determine hGPR65 IC50 values for the test compounds, which are shown in Table 1.

[1] = 1321N1-hrGPR65 cells, cAMP HTRF, assay pH 7.2, read-out: hGPR65 IC50 (Activity of selected compounds according to the invention)

human recombinant GPR65, sequence (Q8IYL9 whole entry): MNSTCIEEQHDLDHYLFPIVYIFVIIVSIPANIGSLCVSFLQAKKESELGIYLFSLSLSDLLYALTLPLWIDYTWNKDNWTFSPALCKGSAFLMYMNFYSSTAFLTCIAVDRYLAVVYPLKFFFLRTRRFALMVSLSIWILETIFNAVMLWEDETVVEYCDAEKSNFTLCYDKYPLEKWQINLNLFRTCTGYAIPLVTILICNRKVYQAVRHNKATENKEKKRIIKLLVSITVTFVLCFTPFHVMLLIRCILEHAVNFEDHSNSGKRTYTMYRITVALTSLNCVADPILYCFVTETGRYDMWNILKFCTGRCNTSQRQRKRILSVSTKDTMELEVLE

**Q.** For O=C(Nc1ccc(Br)c(C(F)(F)F)c1)N1C2CCC1c1n[nH]c(=O)cc1C2 (racemic) [Compound 10, (±)-N-(4-Bromo-3-(trifluoromethyl)phenyl)-3-oxo-3,5,6,7,8,9-hexahydro-2H-6,9-epiminocyclohepta[c]pyridazine-10-carboxamide], which IC50 is on record?
**A.** < 500 nM

**Q.** For O=C(Nc1cc(Cl)c(-c2ccc(F)nc2)cc1F)N1[C@H]2CC[C@@H]1c1c[nH]c(=O)cc1C2 [Compound 172, (6S,9R)-N-(5-Chloro-2-fluoro-4-(6-fluoropyridin-3-yl)phenyl)-3-oxo-3,5,6,7,8,9-hexahydro-2H-6,9-epiminocyclohepta[c]pyridine-10-carboxamide], which IC50 is on record?
**A.** < 500 nM

**Q.** Which IC50 does the source give for O=C(Nc1cc(Cl)c(-c2ccc(F)nc2)cc1F)N1[C@H]2CC[C@@H]1c1n[nH]c(=O)cc1C2 [Compound 109, (6S,9R)-N-(5-Chloro-2-fluoro-4-(6-fluoropyridin-3-yl)phenyl)-3-oxo-3,5,6,7,8,9-hexahydro-2H-6,9-epiminocyclohepta[c]pyridazine-10-carboxamide] here?
**A.** < 500 nM

**Q.** Which IC50 does the source give for O=C(Nc1cc(Cl)c(-c2ccc(OC3CCC3)nc2)cc1F)N1[C@H]2CC[C@@H]1c1c[nH]c(=O)cc1C2 [Compound 239, (6S,9R)-N-(5-Chloro-4-(6-cyclobutoxypyridin-3-yl)-2-fluorophenyl)-3-oxo-3,5,6,7,8,9-hexahydro-2H-6,9-epiminocyclohepta[c]pyridine-10-carboxamide] here?
**A.** < 500 nM

**Q.** O=C(Nc1cc(Br)c(Cl)cc1F)N1C2CCC1c1c[nH]c(=O)nc1C2 (racemic) [Compound 15, (±)—N-(5-Bromo-4-chloro-2-fluorophenyl)-2-oxo-3,5,6,7,8,9-hexahydro-2H-5,8-epiminocyclohepta[d]pyrimidine-10-carboxamide] was tested. Which IC50 did it give?
**A.** < 500 nM

**Q.** For O=C(Nc1cc(Cl)c(Cl)cc1F)N1[C@@H]2CC[C@H]1c1ncc(F)cc1C2 [Compound 95, (6R,9S)-N-(4,5-Dichloro-2-fluorophenyl)-3-fluoro-6,7,8,9-tetrahydro-5H-6,9-epiminocyclohepta[b]pyridine-10-carboxamide], which IC50 [1] is on record?
**A.** > 5000 nM

**Q.** How did the IC50 turn out when O=C(Nc1cc(Cl)c(-c2ccc3nonc3c2)cc1F)N1[C@H]2CC[C@@H]1c1ccnc(F)c1C2 [Compound 162, (5R,8S)-N-(4-(Benzo[c][1,2,5]oxadiazol-5-yl)-5-chloro-2-fluorophenyl)-1-fluoro-6,7,8,9-tetrahydro-5H-5,8-epiminocyclohepta[c]pyridine-10-carboxamide] was run?
**A.** < 500 nM

**Q.** How did the IC50 [1] turn out when COCc1cncc(-c2cc(F)c(NC(=O)N3[C@H]4CC[C@@H]3c3n[nH]c(=O)cc3C4)cc2Cl)c1 [Compound 280, (6S,9R)-N-(5-Chloro-2-fluoro-4-(5-(methoxymethyl)pyridin-3-yl)phenyl)-3-oxo-3,5,6,7,8,9-hexahydro-2H-6,9-] was run?
**A.** 500 to 5000 nM

**Q.** For COc1ncc(-c2cc(F)c(NC(=O)N3[C@H]4CC[C@@H]3c3ccnc(F)c3C4)cc2Cl)cc1F [Compound 219, (5R,8S)-N-(5-Chloro-2-fluoro-4-(5-fluoro-6-methoxypyridin-3-yl)phenyl)-1-fluoro-6,7,8,9-tetrahydro-5H-5,8-epiminocyclohepta[c]pyridine-10-carboxamide], which IC50 is on record?
**A.** < 500 nM

**Q.** For O=C(Nc1cc(Cl)c(-c2ccc(OCC(F)F)nc2)cc1F)N1[C@H]2CC[C@@H]1c1c[nH]c(=O)cc1C2 [Compound 322, (6S,9R)-N-(5-Chloro-4-(6-(2,2-difluoroethoxy)pyridin-3-yl)-2-fluorophenyl)-3-oxo-3,5,6,7,8,9-hexahydro-2H-6,9-epiminocyclohepta[c]pyridine-10-carboxamide], which IC50 is on record?
**A.** < 500 nM

**Q.** With O=C(Nc1cc(Cl)c(-c2cnc(OCC(F)(F)F)c(F)c2)cc1F)N1[C@H]2CC[C@@H]1c1n[nH]c(=O)cc1C2 [Compound 328, (6S,9R)-N-(5-Chloro-2-fluoro-4-(5-fluoro-6-(2,2,2-trifluoroethoxy)pyridin-3-yl)phenyl)-3-oxo-3,5,6,7,8,9-hexahydro-2H-6,9-epiminocyclohepta[c]pyridazine-10-carboxamide] as the compound, how does the IC50 read?
**A.** < 500 nM

**Q.** Which IC50 does the source give for COc1cnc(F)c2c1[C@H]1CC[C@@H](C2)N1C(=O)Nc1cc(Cl)c(C(F)(F)F)cc1F [Compound 97, (5R,8S)-N-(5-Chloro-2-fluoro-4-(trifluoromethyl)phenyl)-1-fluoro-4-methoxy-6,7,8,9-tetrahydro-5H-5,8-epiminocyclohepta[c]pyridine-10-carboxamide] here?
**A.** < 500 nM

**Q.** Which IC50 does the source give for O=C(Nc1noc2ccccc12)N1[C@H]2CC[C@@H]1c1n[nH]c(=O)cc1C2 [Compound 187, (6S,9R)-N-(Benzo[d]isoxazol-3-yl)-3-oxo-3,5,6,7,8,9-hexahydro-2H-6,9-epiminocyclohepta[c]pyridazine-10-carboxamide] here?
**A.** 500 to 5000 nM

**Q.** How did the IC50 turn out when O=C(Nc1cc(Cl)c(C2CC2)cc1F)N1[C@H]2CC[C@@H]1c1n[nH]c(=O)cc1C2 [Compound 42, (6S,9R)-N-(5-Chloro-4-cyclopropyl-2-fluorophenyl)-3-oxo-3,5,6,7,8,9-hexahydro-2H-6,9-epiminocyclohepta[c]pyridazine-10-carboxamide] was run?
**A.** < 500 nM

**Q.** For CC1(c2ccc(NC(=O)N3[C@H]4CC[C@@H]3c3ccnc(F)c3C4)cc2)COC1 [Compound 61, (5R,8S)-1-Fluoro-N-(4-(3-methyloxetan-3-yl)phenyl)-6,7,8,9-tetrahydro-5H-5,8-epiminocyclohepta[c]pyridine-10-carboxamide], which IC50 [1] is on record?
**A.** > 5000 nM

**Q.** Which IC50 [1] does the source give for N#Cc1cnccc1-c1cc(F)c(NC(=O)N2[C@H]3CC[C@@H]2c2n[nH]c(=O)cc2C3)cc1Cl [Compound 179, (6S,9R)-N-(5-Chloro-4-(3-cyanopyridin-4-yl)-2-fluorophenyl)-3-oxo-3,5,6,7,8,9-hexahydro-2H-6,9-epiminocyclohepta[c]pyridazine-10-carboxamide] here?
**A.** 500 to 5000 nM

**Q.** How did the IC50 turn out when N#Cc1cc(NC(=O)N2[C@H]3CC[C@@H]2c2n[nH]c(=O)cc2C3)ccc1C(F)(F)F [Compound 41, (6S,9R)-N-(3-Cyano-4-(trifluoromethyl)phenyl)-3-oxo-3,5,6,7,8,9-hexahydro-2H-6,9-epiminocyclohepta[c]pyridazine-10-carboxamide] was run?
**A.** < 500 nM

**Q.** For COc1ccc(-c2cc(F)c(NC(=O)N3[C@H]4CC[C@@H]3c3n[nH]c(=O)cc3C4)cc2C(F)(F)F)cn1 [Compound 213, (6S,9R)-N-(2-Fluoro-4-(6-methoxypyridin-3-yl)-5-(trifluoromethyl)phenyl)-3-oxo-3,5,6,7,8,9-hexahydro-2H-6,9-epiminocyclohepta[c]pyridazine-10-carboxamide], which IC50 is on record?
**A.** < 500 nM

**Q.** For Cn1ccc2c(-c3cc(F)c(NC(=O)N4[C@H]5CC[C@@H]4c4n[nH]c(=O)cc4C5)cc3Cl)ccnc21 [Compound 282, (6S,9R)-N-(5-Chloro-2-fluoro-4-(1-methyl-1H-pyrrolo[2,3-b]pyridin-4-yl)phenyl)-3-oxo-3,5,6,7,8,9-hexahydro-2H-6,9-epiminocyclohepta[c]pyridazine-10-carboxamide], which IC50 is on record?
**A.** < 500 nM

**Q.** For O=C(Nc1cc(C(F)(F)F)c(-c2ccc(F)nc2)cc1F)N1[C@H]2CC[C@@H]1c1n[nH]c(=O)cc1C2 [Compound 212, (6S,9R)-N-(2-Fluoro-4-(6-fluoropyridin-3-yl)-5-(trifluoromethyl)phenyl)-3-oxo-3,5,6,7,8,9-hexahydro-2H-6,9-epiminocyclohepta[c]pyridazine-10-carboxamide], which IC50 is on record?
**A.** < 500 nM

**Q.** With Cc1nc2cc(-c3cc(F)c(NC(=O)N4[C@H]5CC[C@@H]4c4ccnc(F)c4C5)cc3Cl)ccc2o1 [Compound 233, (5R,8S)-N-(5-Chloro-2-fluoro-4-(2-methylbenzo[d]oxazol-5-yl)phenyl)-1-fluoro-6,7,8,9-tetrahydro-5H-5,8-epiminocyclohepta[c]pyridine-10-carboxamide] as the compound, how does the IC50 read?
**A.** < 500 nM

**Q.** With O=C(Nc1cc(-c2cncc(F)c2)c(C(F)(F)F)cc1F)N1[C@H]2CC[C@@H]1c1ccnc(F)c1C2 [Compound 256, (5R,8S)-1-fluoro-N-(2-fluoro-5-(5-fluoropyridin-3-yl)-4-(trifluoromethyl)phenyl)-6,7,8,9-tetrahydro-5H-5,8-epiminocyclohepta[c]pyridine-10-carboxamide] as the compound, how does the IC50 read?
**A.** < 500 nM
